In paper PMC3335822 (PLoS ONE, 2012):
pIC50: −log10 of the molar value.

What was measured:
EYA3-SIX2 interaction = target: T1, EYA3-SIX2 interaction (Homo sapiens, UniProt Q99504); experiment: His-SIX2 Ni-NTA pull-down of EYA3; format: binding; details: 50 μM, 15 minutes at room temperature
T1 construct: residues 127–573 of NM_001990, isoform 1; His-GST (poly-histidine, glutathione-S-transferase) with TVMV protease site (cleaved yes); made in house
T1 sequence (Q99504 127-573): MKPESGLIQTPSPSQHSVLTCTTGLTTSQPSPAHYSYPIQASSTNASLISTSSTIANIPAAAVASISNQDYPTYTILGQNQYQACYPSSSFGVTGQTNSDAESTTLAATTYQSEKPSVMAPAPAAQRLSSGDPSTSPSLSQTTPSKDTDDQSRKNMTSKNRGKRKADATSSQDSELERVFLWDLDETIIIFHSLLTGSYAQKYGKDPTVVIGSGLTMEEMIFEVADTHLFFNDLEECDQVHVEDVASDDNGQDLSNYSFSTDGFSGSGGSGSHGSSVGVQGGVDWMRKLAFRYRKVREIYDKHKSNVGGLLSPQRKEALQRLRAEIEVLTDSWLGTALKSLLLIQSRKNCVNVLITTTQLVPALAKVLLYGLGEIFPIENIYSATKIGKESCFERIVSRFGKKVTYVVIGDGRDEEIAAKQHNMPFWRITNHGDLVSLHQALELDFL
T1 sequence (Q9NPC8 1-291 partner): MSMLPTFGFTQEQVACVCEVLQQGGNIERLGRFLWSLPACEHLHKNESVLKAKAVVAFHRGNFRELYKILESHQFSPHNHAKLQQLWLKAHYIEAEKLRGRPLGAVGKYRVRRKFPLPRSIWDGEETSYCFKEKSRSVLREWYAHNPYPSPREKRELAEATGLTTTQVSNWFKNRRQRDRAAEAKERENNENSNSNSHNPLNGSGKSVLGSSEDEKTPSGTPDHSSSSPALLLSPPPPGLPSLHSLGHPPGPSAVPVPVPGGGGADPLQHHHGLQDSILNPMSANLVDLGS
Description: The catalytic domain of the EYAs also mediates its interaction with the SIX proteins. This complex then translocates to the nucleus where the SIX-EYA complex can activate transcription.

PTP1B = target: T2, PTP1B (Homo sapiens, UniProt P18031); experiment: pNPP hydrolysis by PTP1B; format: biochemical; details: substrate pNPP
T2 construct: made in house
T2 sequence (P18031 1-435): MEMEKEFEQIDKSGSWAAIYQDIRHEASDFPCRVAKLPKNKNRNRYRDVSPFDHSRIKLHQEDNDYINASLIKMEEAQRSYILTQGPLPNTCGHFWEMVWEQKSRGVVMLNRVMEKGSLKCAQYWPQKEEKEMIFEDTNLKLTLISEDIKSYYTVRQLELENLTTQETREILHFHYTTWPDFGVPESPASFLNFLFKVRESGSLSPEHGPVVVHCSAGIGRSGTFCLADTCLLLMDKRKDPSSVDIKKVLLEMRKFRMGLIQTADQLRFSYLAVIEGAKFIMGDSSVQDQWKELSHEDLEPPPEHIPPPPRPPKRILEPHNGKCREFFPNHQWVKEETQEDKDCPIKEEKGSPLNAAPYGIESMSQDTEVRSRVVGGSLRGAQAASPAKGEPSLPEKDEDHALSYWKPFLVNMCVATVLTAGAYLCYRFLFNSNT
Protocol: (§1) The catalytic domain of human Eyes Absent 2 was similarly sub-cloned as a poly-histidine fusion construct in the vector pDEST-527. Fusion protein was purified by Ni-NTA chromatography and followed by size-exclusion chromatography over a Superdex-75 column. The relative purity of protein samples was determined using SDS-PAGE. PTP1B was purified as described previously.
(§2) Compounds were dissolved in DMSO and diluted as needed. […] Reactions were incubated at 30°C for 30 minutes and quenched with 100 mM EDTA pH 10. IC50 values were then calculated directly from regression curves using PRISM. All reported values are the mean of two independent experiments.

human EYA3 = target: T3, human EYA3 (Homo sapiens, UniProt Q99504); experiment: pNPP hydrolysis by full-length EYA3; format: biochemical
T3 construct: residues 127–573 of NM_001990, isoform 1; His-GST (poly-histidine, glutathione-S-transferase) with TVMV protease site (cleaved yes); made in house
T3 sequence (Q99504 127-573): T1 sequence (Q99504 127-573)
Description: The catalytic domain (ED) of mouse Eyes Absent 3 (Eya3(223–510)) was purified as described before. Human Eyes Absent 3 isoform 2 (representing the major species identified in human cell lines by mass spectrometry and residues 127–573 of NM_001990, isoform 1) was sub-cloned into pDEST565 to express a poly-histidine- Glutathione-S-transferase (His-GST) tagged fusion protein with a TVMV protease site. The protein was purified by glutathione-S-transferase affinity chromatography followed by TVMV cleavage, Ni-NTA chromatography, and finally size exclusion chromatography. […]
as §2

human EYA2(ED) = target: T4, human EYA2(ED) (Homo sapiens, UniProt O00167); experiment: pNPP hydrolysis by the catalytic domain of EYA2; format: biochemical; details: substrate pNPP
T4 sequence (O00167 267-538 limits assumed): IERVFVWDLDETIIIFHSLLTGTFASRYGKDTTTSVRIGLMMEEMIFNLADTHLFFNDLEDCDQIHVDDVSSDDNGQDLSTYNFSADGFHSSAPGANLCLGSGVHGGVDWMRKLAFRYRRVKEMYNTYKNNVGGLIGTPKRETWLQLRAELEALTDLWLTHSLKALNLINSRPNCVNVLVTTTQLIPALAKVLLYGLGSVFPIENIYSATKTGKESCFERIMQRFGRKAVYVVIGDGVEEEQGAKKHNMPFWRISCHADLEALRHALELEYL
Protocol: as §1
The NCI Diversity Set II was obtained from the NCI in 96-well trays from the NIH Molecular Libraries Program and stored as 10 mM stocks in DMSO. An initial manual screen was conducted using the previously described p-nitrophenylphosphate assay and mouse Eya3(223–510) in a reaction mixture containing 20 mM MES pH 6, 2 mM MgCl2, 125 μM inhibitor, 3.4 mM para-nitrophenol phosphate (pNPP) and 0.01 μg/µL enzyme. The amount of 4-nitrophenol (pNP) produced was monitored at […] on a BioTek EL808 plate reader. A similar protocol was used to screen for inhibitor activity using hEYA3 and hEYA2(ED).
as §2

Structure (SMILES) | effect on the interaction between EYA3 and SIX2 (EYA3-SIX2 interaction) | pIC50 (PTP1B) | inhibitory effect in the presence of detergent (human EYA3; 0.01% Triton X-100) | pIC50 (human EYA2(ED)) | pIC50 (human EYA3; full-length human EYA3, substrate pNPP)
CCc1oc2ccccc2c1C(=O)c1cc(Br)c(O)c(Br)c1 [Compound 1, Benzbromarone] | does not affect the interaction between EYA3 and SIX2 | 4.27 | inhibitory effect was retained | 4.99 | 
CCc1oc2ccccc2c1C(=O)c1ccc(O)cc1 [Compound 1a, Benzarone] |  | < 3.82 |  |  | 4.77
